Assay type in all cases: cell-based, human
In assay [1] the test system is EndoC-βH2 cells. In words: Glucose stimulated insulin secretion (GSIS) of Cre-infected EndoC-βH2 cells, ELISA. Also noted: GSIS (insulin levels secreted): dose or concentration left out as unconfirmed. The settings on record: EndoC-βH2 cells infected with Cre, versus vehicle.
In assay [2] the test system is EndoC-βH2 cells. The assay can be described thus: Mitochondrial activity (membrane potential) by TMRE staining, FACS, of Cre-infected EndoC-βH2 cells. To be noted: EndoC-βH2 cells three weeks after Cre infection.
The test system of assay [3] is EndoC-βH2 cells. In words: Cell size (FSC) by FACS of Cre-infected EndoC-βH2 cells. To be noted: EndoC-βH2 cells three weeks after Cre infection, 250 nM Torin1 versus vehicle.

Turning to `O=C(Nc1ccccc1)c1cc([N+](=O)[O-])ccc1Cl` [GW9662], in the assay with EndoC-βH2 cells [1] (GW9662 twice a week for 3 weeks), the “GSIS (insulin levels secreted)” value was “reduced GSIS”. The “mitochondrial activity (TMRE staining)” value with EndoC-βH2 cells [2] (GW9662 50 mM twice a week, versus vehicle) is reported as “reduced”.
In the case of `CCC(=O)N1CCN(c2ccc(-n3c(=O)ccc4cnc5ccc(-c6cnc7ccccc7c6)cc5c43)cc2C(F)(F)F)CC1` [Torin1], in the assay with EndoC-βH2 cells [3], the “cell size (FSC)” value is on record as “reduced size”. Besides, in the assay on EndoC-βH2 cells [1] (250 nM Torin1 starting 3 days after infection, for 3 weeks, low glucose 2.8 mM then high glucose 16.7 mM for 1 hour), the “levels of insulin secretion” value is “lower levels of insulin secretion”. The “mitochondrial activity (TMRE staining)” value in the assay with EndoC-βH2 cells [2] (250 nM Torin1 versus vehicle) is given as “reduced”.

The record behind these values is patent US20170196913A1, “ENHANCEMENT OF GLUCOSE-STIMULATED INSULIN SECRETION BY CELLS THROUGH INDUCTION OF CELLULAR SENESCENCE” (YISSUM RESEARCH DEVELOPMENT COMPANY OF THE HEBREW …, priority 2016, published 2017).
